Reference: patent EP0103830A2, “Phenylethylemine derivatires as growth stimulators” (priority 1982, dated 1984)
Where a name gives a salt, the structure may show the parent alone.

How the values were obtained:
Assay type in all cases: in vivo
[1] = Feeding trial (Beispiel 1): feed intake, weight gain, feed conversion; settings: 25 ppm in feed, n = 6, whole trial period (13 Tage), Ratten weiblich SPF Wistar
Source text: (§1) Die Tiere wurden 2 Tage an die neuen Haltungsbedingungen adaptiert, wobei generell das Versuchsfutter ohne Wirkstoffzusatz verabreicht wurde. Am dritten Versuchstag wurden die Tiere randomisiert und anschließend die Versuchsgruppen so gebildet, daß sowohl die Mittelwerte als auch die Streuungen in den Körpergewichten zwischen den Gruppen gleich waren. Nach einer 5-tägigen Vorperiode wurde eine 8-tägige Hauptperiode durchgeführt, in denen Futteraufnahme, Zuwachs und Futterverwertung bestimmt wurden.
(§2) Es wurden folgende Behandlungen geprüft: • b 1) Negativkontrolle (n = 12) • b 2) 25 ppm (Wirkstoff Herstellungsbeispiel 1) (n = 6)

[2] = Feeding trial (Beispiel 3): feed intake, weight gain, feed conversion; settings: 25 ppm in feed, n = 6, whole trial period (13 Tage)
Source text: as §1, §2

[3] = Feeding trial (Beispiel 2): feed intake, weight gain, feed conversion; settings: 0,2 ppm in feed, whole trial period (12 Tage)
Source text: as §1, with “7-tägige” for “8-tägige”
Es wurden folgende Behandlungen geprüft: • b 1) Negativkontrolle (n = 24) • b 2) 0,2 ppm (Wirkstoff Herstellungsbeispiel 1)

[4] = Feeding trial (Beispiel 4): feed intake, weight gain, feed conversion; settings: 25 ppm in feed, n = 6, whole trial period (13 Tage)
Source text: as §1
(§3) Es wurden folgende Behandlungen geprüft: • b 1) Negativkontrolle (n = 12) • b 2) 25 ppm (Wirkstoff Herstellungsbeispiel 2) (n = 6)

[5] = Feeding trial (Beispiel 6): feed intake, weight gain, feed conversion; settings: 25 ppm in feed, n = 6, whole trial period (13 Tage)
Source text: as §1, §3

[6] = Feeding trial (Beispiel 5): feed intake, weight gain, feed conversion; settings: 25 ppm in feed, n = 6, whole trial period (13 Tage)
Source text: as §1, §3

[7] = Feeding trial in rats over 15 days (Beispiel 7), results relative to control; settings: 25 ppm in feed, 15 Tage, Ratten weiblich SPF-Wistar; Kontrolle = 100 %
Source text: Vor Beginn des Fütterungsversuches wurden die Ratten zwei Tage lang an die neuen Haltungsbedingungen adaptiert, wobei generell das Versuchsfutter ohne Wirkstoffzusatz verabreicht wurde. Am dritten Versuchstag wurden die Tiere randomisiert und anschließend die Versuchsgruppen so gebildet, daß sowohl die Mittelwerte als auch die Streuungen in den Körpergewichten zwischen den Gruppen gleich waren.
Der Fütterungsversuch, in dem die Futteraufnahme, der Körpergewichtszuwachs und die Futterverwertung individuell bestimmt wurden, erstreckte sich über 15 Tage.
Als Wirkstoffe wurden dem Futter untergemischt: • 1-(3,4-Dihydroxyphenyl)-2-[1-methyl-2-(3,4-methylendioxyphenyl)ethylamino]ethanolhydrochlorid (= Verbindung I), • 2-Amino-1-(3-hydroxyphenyl)ethanolhydrochlorid (= Verbindung II), • 2-Amino-1-(3-hydroxyphenyl)propanolh^ydrogentartrat (= Verbindung III), • 1-(4-Hydroxyphenyl)-2-(1-methyl-3-phenylpropylamino)-propanolhydrochlorid (= Verbindung IV), • 2-Ethylamino-1-(3-hydroxyphenyl)ethanolhydrochlorid (= Verbindung V), • 1- (3,5-Dihydroxyphenyl) -2- (3-phenylpropylamino) propanol als Salz der 4-Aminobenzoesäure (= Verbindung VI), • 1-(3-Hydroxyphenyl)-2-(1,1-dimethyl-2-phenylethylamino)-ethanol als Salz der 4-Aminobenzoesäure (= Verbindung VII), • 5-[2-[1,1-Dimethylethyl)amino]-1-hydroxyethyl]-2-hydroxy- benzamid . HCl (= Verbindung VIII)
Ratten, weiblich, SPF-Wistar 36 Tiere/Versuch Gewicht: 90 bis 150 g Futter: Haltungsdiät für Ratten mit folgender Zusammensetzung: […]

Structure (SMILES) | Futteraufnahme [7] | Futterverwertung [7] | Zuwachs [7] | other results
COc1ccc(C(O)CNC(C)(C)C)cc1 (stereo not drawn) [Herstellungsbeispiel 1, 2-t-Butylamino-1-(4-methoxyphenyl)-ethanol] | – | – | – | Futterverwertung ([1]; Negativkontrolle 5,62): 4,03 g/g; Zuwachs ([1]; Negativkontrolle 27,9): 43,7 g; Futteraufnahme ([1]; Negativkontrolle 153): 175 g; Futterverwertung ([2]; Negativkontrolle 5,04): 4,41 g/g; Zuwachs ([2]; Negativkontrolle 37,0): 42,4 g; Futteraufnahme ([2]; Negativkontrolle 182): 187 g; Futterverwertung ([3]; Negativkontrolle 4,88): 4,21 g/g; Zuwachs ([3]; Negativkontrolle 41,0): 50,5 g; Futteraufnahme ([3]; Negativkontrolle 200): 213 g
CC(C)(C)NCC(O)c1cc(Br)c(O)c(Br)c1 (stereo not drawn) [Herstellungsbeispiel 2] | – | – | – | Futterverwertung ([4]; Negativkontrolle 4,75): 4,41 g/g; Zuwachs ([4]; Negativkontrolle 41,3): 45,1 g; Futteraufnahme ([4]; Negativkontrolle 196): 199 g; Futterverwertung ([5]; Negativkontrolle 5,04): 4,36 g/g; Zuwachs ([5]; Negativkontrolle 37,0): 43,2 g; Futteraufnahme ([5]; Negativkontrolle 182): 183 g; Futterverwertung ([6]; Negativkontrolle 5,62): 3,96 g/g; Zuwachs ([6]; Negativkontrolle 27,9): 43,4 g; Futteraufnahme ([6]; Negativkontrolle 152): 171 g
CC(Cc1ccc2c(c1)OCO2)NCC(O)c1ccc(O)c(O)c1 (stereo not drawn) [Verbindung I, 1-(3,4-Dihydroxyphenyl)-2-[1-methyl-2-(3,4-methylendioxyphenyl)ethylamino]ethanolhydrochlorid] | 104% | 92,9% | 112% | –
NCC(O)c1cccc(O)c1 (stereo not drawn) [Verbindung II, 2-Amino-1-(3-hydroxyphenyl)ethanolhydrochlorid] | 98% | 91,6% | 107% | –
CC(N)C(O)c1cccc(O)c1 (stereo not drawn) [Verbindung III, 2-Amino-1-(3-hydroxyphenyl)propanolhydrogentartrat] | 99% | 96,1% | 103% | –
CC(CCc1ccccc1)NC(C)C(O)c1ccc(O)cc1 (stereo not drawn) [Verbindung IV, 1-(4-Hydroxyphenyl)-2-(1-methyl-3-phenylpropylamino)-propanolhydrochlorid] | 101,7% | 96,9% | 105% | –
CCNCC(O)c1cccc(O)c1 (stereo not drawn) [Verbindung V, 2-Ethylamino-1-(3-hydroxyphenyl)ethanolhydrochlorid] | 104% | 90,4% | 115% | –
CC(C)(C)NCC(O)c1ccc(O)c(C(N)=O)c1 (stereo not drawn) [Verbindung VIII, 5-[2-[(1,1-Dimethylethyl)amino]-1-hydroxyethyl]-2-hydroxy-benzamid . HC1] | 106% | 84,8% | 125,0% | –
